Results taken from article PMC7821381, “Multi-Targeted Anticancer Activity of Imidazolate Phosphane Gold(I) Compounds by Inhibition of DHFR and TrxR in Breast Cancer Cells” (Frontiers in Chemistry, 2021).

Experiments:
[1] = molecular target: T1, dihydrofolate reductase (DHFR) (Homo sapiens, UniProt P00374); experiment: DHFR specific enzymatic activity in lysates of treated MDA-MB231 cells; format: cell-based; settings: 8 μM (maximum inhibition)
T1 construct: Cell lysates were collected using Cell Culture Lysis Reagent; endogenous in cells; host or cells: MDA-MB231 and SKBR3 (human breast cancer cells)
T1 sequence (P00374 1-187): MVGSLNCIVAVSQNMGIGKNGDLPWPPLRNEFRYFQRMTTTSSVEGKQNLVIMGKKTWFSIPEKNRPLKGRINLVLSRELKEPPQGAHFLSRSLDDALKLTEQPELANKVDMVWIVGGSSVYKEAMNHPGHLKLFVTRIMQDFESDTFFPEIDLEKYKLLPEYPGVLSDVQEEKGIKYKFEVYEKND
Protocol: SKBR3, MDA-MB-231 and A17 cells were plated onto 100 mm cell culture dishes (2 × 10^6 cells/ dish). The day after, cells were treated with vehicle alone (DMSO) as control or increasing concentrations of compound 5 and compound 6 in DMEM supplemented with 2% FBS (Invitrogen, Carlsbad, CA) for 4 h or 12 h. Representative pictures of cells treated with compound 5 or 6 at the indicated concentration for 4 or 12 h just before to take cell lysates for the enzymatic tests are reported as supplemental files. Cell lysates were collected using Cell Culture Lysis Reagent (Promega, Madison, WI) supplemented with BSA (1%) and protease inhibitors. DHFR activity was assessed by spectrophotometric assay as reported elsewhere (Wang et al., [2020]) in which the reaction rate was followed by recording the decreasing absorbance at 340 nm due to oxidation of NADPH to NADP^+, using a Shimadzu UV-2450 spectrophotometer. When necessary, because of low protein content in the lysates, the DHFR enzymatic activity was measured by a discontinuous direct HPLC assay using an Agilent 1100 system. HPLC-DAD (Agilent 1100) was used to detect and quantify the presence of NADP^+, as one of the products of DHFR catalyzed reaction, in cell lysates. Fifty microliter of the cell lysate were incubated at 37°C in a reaction mixture containing 760 μl of buffer (0.05 M Hepes pH 7.3), 20 μl of NADPH 4 mM, and 20 μl of dihydrofolate (H2F) 4 mM. The samples for HPLC analysis were prepared as follows: 50 μl aliquots of each mixture were stopped at different times (0, 5, 10, 20, 30, and 60 min) by adding 25 μl of HClO4 1.2 M; after 10 min on ice and centrifugation for 5 min at 12,000 g, 60 μl of each supernatant were neutralized by adding 17.5 μl of K2CO3 0.79 M, kept on ice and centrifuged again. Fifty microliter of the supernatant obtained were directly injected into the reversed phase column for separations of reagents and products of the enzyme catalyzed reaction. The column used is a Supelcosil LC RP 18 (4.6 × 250 mm) with pre-column SupelGuard. The HPLC settings are the same reported in Wang et al. ([2020]). The amounts of product (NADP^+) were determined from the peak areas of the HPLC-separated compounds with reference to appropriate standards. One enzyme unit is defined as the amount of enzyme which catalyzes the reduction of 1 μmol of dihydrofolate, per minute, at 37°C. Enzyme activities were normalized by the protein content, determined by the Bradford assay (Bradford, [1976]).

[2] = tested on: thioredoxin reductase (TrxR); settings: for Specific enzymatic activity of TrxR: SKBR3, 12 h treatment, 8 μM (maximum inhibition), control 4.07 ± 0.32; for TrxR residual activity: SKBR3 cells, versus control cells
Protocol: The assay was performed as previously reported (Galassi et al., [2012]) in 0.2 M Na, K-phosphate buffer (pH 7.4) containing 2 mM EDTA. The assay contained 0.12 mM NADPH and different amounts of cell lysate. The reaction was initiated by the addition of 3 mM 5,5′-dithiobis (2-nitrobenzoic acid) (DTNB) and the increase of absorbance was monitored at 412 nm over 5 min at 25°C.

[3] = MDA-MB231, 4 h treatment, control 5.38 ± 0.38
[4] = MDA-MB231, 12 h treatment, control 0.64 ± 0.02

Substance	Specific enzymatic activity of DHFR [1, 3] [mU/mg]	Specific enzymatic activity of DHFR [1, 4] [mU/mg]	Specific enzymatic activity of TrxR [2]	TrxR residual activity [2] [%]
4,5-dichloro-imidazolate-1yl-gold(I)-(triphenylphosphane) [Compound 6]	1.75 ± 0.34	0.55 ± 0.002	1.51 ± 0.04 (8 μM) mU/mg	49
4,5-dicyano-imidazolate-1yl-gold(I)-(triphenylphosphane) [Compound 5]	2.37 ±0.39	0.42 ± 0.01	1.98 ± 0.06 (8 μM) mU/mg	37
